The source of these data is patent US5750531A, “Pyrimidine derivatives and processes for the preparation thereof” (Yuhan Corporation, priority 1994, dated 1998).

In one assay the test system is gastric secretion. Description: Inhibition of gastric secretion (pylorus ligation, Shay method). It is filed as in vivo, Male Sprague-Dawley rats. The conditions noted are these: 20 mg/kg intraduodenally, 5 hours; for Relative Acid Output: acid output relative to omeprazole; for Rel. Vol.: gastric juice volume relative to omeprazole; for Rel. Conc.: acid concentration relative to omeprazole. The protocol:
Inhibition of gastric secretion […] Under ether anesthesia, the abdomen was incised, and the pylorus was ligated. […] After closing the abdominal cavity, the rats were placed for 5 hours and then killed by cervical dislocation. The stomach was extracted to obtain gastric juice. The gastric juice was centrifuged at 1,000 g to remove precipitates. The amount and acidity of the gastric juice were measured. Relative volumes, relative acid concentrations and relative acid outputs of the test compounds were calculated from equations(I), (II) and (III) and the results are shown in Table 2. […] Group 3) (II) […] (III)

Assay [1] has as its target proton pump(H^+ /K^+ ATPase). Description: Inhibition of proton pump(H^+ /K^+ ATPase) activity. In kind it is biochemical. The following applies: pH 6.0, 37° C., 30 minutes preincubation and 30 minutes reaction; read-out: IC50 Test compound. How it is done: Test 1: Inhibition of proton pump(H^+ /K^+ ATPase) activity
A proton pump enzyme source was prepared by the same method as in Experiment 1-1 of WO 94/14795. Further, the inhibitory effect of proton pump activity was measured by the same method as in Experiment 1-2 of WO 94/14795.
Namely, the proton pump activity stimulated by Mg^++ was used as a negative comparative group, and the activity stimulated by Mg^++ and K^+ was used as a positive comparative group. The comparative compound was omeprazole.
Test tubes were divided into 4 groups: Group 1 as negative comparative group(n=3), Group 2 as positive comparative group(n=3), Group 3(n=5×2) to be administered with the compound of the present invention and Group 4(n=5×2) to be administered with the comparative compound.
The inhibitory effects of Groups 3 and 4 on proton pump activity were measured by employing the compound prepared in Example and omeperazole, respectively, each of which was dissolved in dimethylsulfoxide at 5 different concentrations.
To each of Groups 1, 2, 3 and 4 were added 100 μl of magnesium chloride(40 mM) dissolved in 40 mM Tris-HCl buffer(pH 6.0) and 100μ of the enzyme source. Then, 50μ of potassium chloride(50 mM) and 50 μl of ammonium chloride(6 mM) dissolved in 40 mM Tris-HCl buffer(pH 6.0) were added to all groups except for Group 1.
10 μl of dimethylsulfoxide was added to each of Groups 1 and 2; and to Group 3 was added 10 μl of the solution in which the compound prepared in Example was dissolved in dimethylsulfoxide at 5 different concentrations(n=5×2). To Group 4, 10 μl of the solution prepared by dissolving omeprazole in dimethylsulfoxide at 5 different concentrations(37.6, 21.4, 12.2, 7.0 and 4.0 μM) was added(n=5×2). 40 mM Tris-HCl buffer(pH=6.0) was added thereto so as to make the total volume 400 μl.
Thereafter, the test tubes of each Group were placed at 37° C. for 30 minutes for the preincubation. 100 μl of ATP solution (6.6 mM) was added until the reaction volume became 500 μl. After the reaction was carried out at 37° C. for 30 minutes, 25% cold trichloroacetic acid was added to terminate the enzyme reaction. The released inorganic phosphate was measured by an automatic analyzer(Express 550, Corning).
The difference between Group 1 and Group 2 represents the proton pump activity activated by K^+ only. The inhibition percentages of Groups 3 and 4 were calculated from Litchfield-wilcoxon equation[see, e.g., J. pharmacol. Exp. Ther., 96, 99(1949)]. The concentrations of the test compounds which inhibit 50% of the proton pump activity are represented as IC50 in Table 1.

In the case of `Cc1cc(F)ccc1Nc1nccc(N2CCc3ccccc3C2C)n1.Cl` (stereo not shown) [Example 1, 2-(2-methyl-4-fluorophenylamino)-4-(1-methyl-1,2,3,4-tetrahydroisoquinolin-2-yl)pyrimidine hydrochloride], in the assay with gastric secretion, the “Relative Acid Output” value stood at 0.11 and the Rel. Vol. came out at 0.12. Also, the IC50 in assay [1] is 5.4 µM.
As for `Cc1cc(N2CCc3ccccc3C2C)nc(Nc2ccc(F)cc2C)n1.Cl` (stereo not shown) [Example 2, 6-methyl-2-(2-methyl-4-fluorophenylamino)-4-(1-methyl-1,2,3,4-tetrahydroisoquinolin-2-yl)pyrimidine hydrochloride], in the assay on gastric secretion, the Rel. Conc. stood at 0.8, the “Relative Acid Output” value was 0.89 and the Rel. Vol. was determined as 0.92. Also, the concentration for half-maximal inhibition (IC50) in assay [1] turned out to be 0.9 µM.
In the same order, the values of `Cc1cc(N2CCc3ccccc3C2C)nc(Nc2ccc(F)cc2)n1.Cl` (stereo not shown) [Example 3, 6-methyl-4-(1-methyl-1,2,3,4-tetrahydroisoquinolin-2-yl)-2-(4-fluorophenylamino)pyrimidine hydrochloride] are 0.81, 0.87, 0.76 and 3.5 µM.
Turning to `Cc1cc(N2CCc3ccccc3C2C)nc(N(C)c2ccccc2)n1.Cl` (stereo not shown) [Example 4, 6-methyl-2-(N-methylphenylamino)-4-(1-methyl-1,2,3,4-tetrahydroisoquinolin-2-yl)pyrimidine hydrochloride], in the assay with gastric secretion, the Rel. Conc. came out at 0.56, the “Relative Acid Output” value is listed as 0.87 and the Rel. Vol. amounted to 0.99.
On to `CCc1cc(N2CCc3ccccc3C2C)nc(Nc2ccc(F)cc2C)n1.Cl` (stereo not shown) [Example 5, 6-ethyl-2-(2-methyl-4-fluorophenylamino)-4-(1-methyl-1,2,3,4-tetrahydroisoquinolin-2-yl)pyrimidine hydrochloride], for which, in the assay with gastric secretion, the Rel. Conc. was determined as 0.27, the “Relative Acid Output” value stood at 0.61 and the Rel. Vol. is 0.59. Further, in assay [1], the 50% inhibitory concentration (IC50) came out at 1.3 µM.
For `CCc1cc(N2CCc3ccccc3C2C)nc(Nc2ccc(F)cc2)n1.Cl` (stereo not shown) [Example 6, 6-ethyl-2-(4-fluorophenylamino)-4-(1-methyl-1,2,3,4-tetrahydroisoquinolin-2-yl)pyrimidine hydrochloride] the same measures were 0.28, 0.64, 0.64 and 4.3 µM.
For `CCc1cc(N2CCc3ccccc3C2C)nc(N(C)c2ccccc2)n1.Cl` (stereo not shown) [Example 7, 6-ethyl-2-(N-methylphenylamino)-4-(1-methyl-1,2,3,4-tetrahydroisoquinolin-2-yl)pyrimidine hydrochloride], in the assay on gastric secretion, the Rel. Conc. was 0.09, the “Relative Acid Output” value is 0.48 and the Rel. Vol. was 0.51.
On to `CCc1cc(N2CCc3ccccc3C2C)nc(Nc2ccccc2C)n1.Cl` (stereo not shown) [Example 8, 6-ethyl-2-(2-methylphenylamino)-4-(1-methyl-1,2,3,4-tetrahydroisoquinolin-2-yl)pyrimidine hydrochloride], for which, in the assay on gastric secretion, the Rel. Conc. came out at 0.12, the “Relative Acid Output” value stood at 0.42 and the Rel. Vol. came out at 0.43. The IC50 in assay [1] is ~12.5 µM.
On to `CCCc1cc(N2CCc3ccccc3C2C)nc(Nc2ccc(F)cc2C)n1.Cl` (stereo not shown) [Example 9, 2-(2-methyl-4-fluorophenylamino)-4-(1-methyl-1,2,3,4-tetrahydroisoquinolin-2-yl)-6-propylpyrimidine hydrochloride], for which, in the assay on gastric secretion, the “Relative Acid Output” value worked out at 0.3 and the Rel. Vol. is 0.4. Besides, the half-maximal inhibitory concentration (IC50) in assay [1] is ~10 µM.
For `CCCc1cc(N2CCc3ccccc3C2C)nc(Nc2ccc(F)cc2)n1.Cl` (stereo not shown) [Example 10, 4-(1-methyl-1,2,3,4-tetrahydroisoquinolin-2-yl)-6-propyl-2-(4-fluorophenylamino)pyrimidine hydrochloride], in the assay with gastric secretion, the Rel. Conc. was found to be 0.47, the “Relative Acid Output” value was found to be 0.55 and the Rel. Vol. came to 0.58. In addition, the half-maximal inhibitory concentration (IC50) in assay [1] came to 10.6 µM.
As for `CCCc1cc(N2CCc3ccccc3C2C)nc(N(C)c2ccccc2)n1.Cl` (stereo not shown) [Example 11, 2-(N-methylphenylamino)-4-(1-methyl-1,2,3,4-tetrahydroisoquinolin-2-yl)-6-propylpyrimidine hydrochloride], in the assay with gastric secretion, the Rel. Conc. turned out to be 0.41, the “Relative Acid Output” value stood at 0.82 and the Rel. Vol. worked out at 0.99.
In the same order, the values of `CC1c2ccccc2CCN1c1nc(N(C)c2ccccc2)nc2c1CCCC2.Cl` (stereo not shown) [Example 33, 2-(N-methylphenylamino)-4-(1-methyl-1,2,3,4-tetrahydroisoquinoline-2-yl)-5,6,7,8-tetrahydroquinazoline hydrochloride] are 1.13, 0.94 and 0.93.
For `Cc1cc(N2CCc3ccccc3C2)nc(N(C)c2ccccc2)n1.Cl` [Example 36, 6-methyl-2-(N-methylphenylamino)-4-(1,2,3,4-tetrahydroisoquinolin-2-yl)pyrimidine hydrochloride], in the assay with gastric secretion, the Rel. Conc. came out at 0.05, the “Relative Acid Output” value was determined as 0.41 and the Rel. Vol. was found to be 0.65.
In the same order, the values of `CCc1nc(Nc2ccc(F)cc2C)nc(N2CCc3ccsc3C2C)c1C.Cl` (stereo not shown) [Example 56, 5-methyl-2-(2-methyl-4-fluorophenylamino)-4-(7-methyl-4,5,6,7-tetrahydrothieno[2,3-c]pyridin-6-yl)-6-ethylpyrimidine hydrochloride] are 0.08, 0.08 and 0.01.
`Cc1nc(N2CCc3ccccc3C2C)nc(N(C)c2ccccc2)c1C.Cl` (stereo not shown) [Example 71, 5,6-dimethyl-4-(N-methylphenylamino)-2-(1-methyl-1,2,3,4-tetrahydroisoquinolin-2-yl)pyrimidine hydrochloride]: in the assay on gastric secretion, the “Relative Acid Output” value came to 0.16 and the Rel. Vol. was determined as 0.25.
Consider `Cc1nc(N2CCc3ccccc3[C@H]2C)nc(N(C)c2ccccc2)c1C.Cl` [Example 72, (R)-5,6-dimethyl-4-(N-methylphenylamino)-2-(1-methyl-1,2,3,4-tetrahydroisoquinolin-2-yl)pyrimidine hydrochloride], for which, in the assay on gastric secretion, the Rel. Conc. stood at 0.16, the “Relative Acid Output” value is recorded as 0.25 and the Rel. Vol. turned out to be 0.34.
As for `Cc1nc(N2CCc3ccccc3[C@@H]2C)nc(N(C)c2ccccc2)c1C.Cl` [Example 73, (S)-5,6-dimethyl-4-(N-methylphenylamino)-2-(1-methyl-1,2,3,4-tetrahydroisoquinolin-2-yl)pyrimidine hydrochloride], in the assay with gastric secretion, the “Relative Acid Output” value is reported as 0.13 and the Rel. Vol. was determined as 0.18.
As for `Cc1nc(N2CCc3ccccc3C2)nc(N(C)c2ccccc2)c1C.Cl` [Example 76, 5,6-dimethyl-4-(N-methylphenylamino)-2-(1,2,3,4-tetrahydroisoquinolin-2-yl)pyrimidine hydrochloride], in the assay on gastric secretion, the Rel. Conc. stood at 0.17, the “Relative Acid Output” value is reported as 0.33 and the Rel. Vol. was found to be 0.28.
In the same order, the values of `Cc1nc(N2CCc3ccsc3C2C)nc(N(C)c2ccccc2)c1C.Cl` (stereo not shown) [Example 79, 5,6-dimethyl-4-(N-methylphenylamino)-2-(7-methyl-4,5,6,7-tetrahydrothieno[2,3-c]pyridin-6-yl)pyrimidine hydrochloride] are 1.28, 0.49 and 0.54.
For `CCc1nc(N2CCc3ccccc3C2C)nc(Nc2ccc(F)cc2C)c1C.Cl` (stereo not shown) [Example 80, 5-methyl-6-ethyl-4-(2-methyl-4-fluorophenylamino)-2-(1-methyl-1,2,3,4-tetrahydroisoquinolin-2-yl)pyrimidine hydrochloride] the same measures were 0.29, 0.44 and 0.32.

Usually IC50 stands for the midpoint of a concentration-inhibition curve.
